From ChEMBL document CHEMBL1649205, “CraA, a major facilitator superfamily efflux pump associated with chloramphenicol resistance in Acinetobacter baumannii” (2009)
Values after ≈ are worked out from the molar mass of the structure shown.

Columns and labels:
Type in all cases: functional
Acinetobacter baumannii [1] = assay: microbe, parasite or virus in culture; conditions: ATCC 19606
Description: Antimicrobial activity against Acinetobacter baumannii ATCC 19606 expressing open reading frame orf3 encoded efflux pump CraA by Etest

Acinetobacter baumannii [2] = assay: Antimicrobial activity against Acinetobacter baumannii JVAB01 expressing disrupted open reading frame orf3 mutant deficient in efflux pump CraA by Etest
Acinetobacter baumannii [3] = assay: Antimicrobial activity against efflux pump CraA deficient Acinetobacter baumannii JVAB01 receiving pJV103 harboring open reading frame orf3 encoded efflux pump CraA by Etest
Acinetobacter baumannii [4] = assay: Antimicrobial activity against efflux pump CraA deficient Acinetobacter baumannii JVAB01 receiving pJV103 harboring open reading frame orf3 encoded efflux pump CraA in presence of efflux pump inhibitor phenyl-arginine-beta-naphthylamide by Etest
Acinetobacter baumannii [5] = assay: Antimicrobial activity against Acinetobacter baumannii ATCC 19606 expressing open reading frame orf3 encoded efflux pump CraA in presence of efflux pump inhibitor phenyl-arginine-beta-naphthylamide by Etest
Acinetobacter baumannii [6] = assay: Antimicrobial activity against Acinetobacter baumannii JVAB01 expressing disrupted open reading frame orf3 mutant deficient in efflux pump CraA in presence of efflux pump inhibitor phenyl-arginine-beta-naphthylamide by Etest

Compound	MIC (Acinetobacter baumannii [1]) [µg/mL]	MIC (Acinetobacter baumannii [2]) [µg/mL]	MIC (Acinetobacter baumannii [3]) [µg/mL]	MIC (Acinetobacter baumannii [4]) [µg/mL]	MIC (Acinetobacter baumannii [5]) [µg/mL]	MIC (Acinetobacter baumannii [6]) [µg/mL]
CN(C)[C@@H]1C(O)=C(C(N)=O)C(=O)[C@@]2(O)C(O)=C3C(=O)c4c(O)cccc4[C@@](C)(O)[C@H]3C[C@@H]12 [TETRACYCLINE]	6 (≈ 13.5 µM)	6 (≈ 13.5 µM)	96 (≈ 216 µM)	–	–	–
O=C(O)c1cn(C2CC2)c2cc(N3CCNCC3)c(F)cc2c1=O [CIPROFLOXACIN]	0.25 (≈ 0.754 µM)	0.25 (≈ 0.754 µM)	0.25 (≈ 0.754 µM)	–	–	–
CCC[C@@H]1C[C@@H](C(=O)N[C@@H]([C@H]2O[C@H](SC)[C@H](O)[C@@H](O)[C@H]2O)[C@H](C)Cl)N(C)C1 [CLINDAMYCIN]	> 256	> 256	> 256	–	–	–
CCn1cc(C(=O)O)c(=O)c2ccc(C)nc21 [NALIDIXIC ACID]	12 (≈ 51.7 µM)	12 (≈ 51.7 µM)	12 (≈ 51.7 µM)	–	–	–
CC[C@H]1OC(=O)[C@H](C)[C@@H](O[C@H]2C[C@@](C)(OC)[C@@H](O)[C@H](C)O2)[C@H](C)[C@@H](O[C@@H]2O[C@H](C)C[C@H](N(C)C)[C@H]2O)[C@](C)(O)C[C@@H](C)C(=O)[C@H](C)[C@@H](O)[C@]1(C)O [ERYTHROMYCIN]	1.5 (≈ 2.04 µM)	1.5 (≈ 2.04 µM)	1.5 (≈ 2.04 µM)	–	–	–
CCn1cc(C(=O)O)c(=O)c2cc(F)c(N3CCNCC3)cc21 [NORFLOXACIN]	6 (≈ 18.8 µM)	6 (≈ 18.8 µM)	6 (≈ 18.8 µM)	–	–	–
C[C@@H](O)[C@H]1C(=O)N2C(C(=O)O)=C(SCCNC=N)C[C@H]12 [IMIPENEM ANHYDROUS]	0.75 (≈ 2.51 µM)	0.75 (≈ 2.51 µM)	0.75 (≈ 2.51 µM)	–	–	–
O=C(N[C@H](CO)[C@H](O)c1ccc([N+](=O)[O-])cc1)C(Cl)Cl [CHLORAMPHENICOL]	> 256	2 (≈ 6.19 µM)	192 (≈ 594 µM)	16	32	1.5
